Source: patent US20220117958A1, “COMPOSITIONS AND METHODS FOR INHIBITING ACSS2” (THE TRUSTEES OF THE UNIVERSITY OF PENNSYLVANIA, priority 2018, published 2022)
≈ marks a conversion by molar mass, not a printed value. Where “and” joins values, the source holds several entries; their conditions need not be identical. Equal entries are not always repeated. Where two headings read alike, the source gives them in different places. Marks after values point to notes of the source that are not given here.

Tests used:
[1] = Protein binding via Rapid Equilibrium Dialysis - plasma; assay type: in vitro ADME; details: Rat (SD) plasma, 2 μM
Text: (§1) Table 20 provides results of in vitro and in vivo pharmacokinetics performed for each of the represented compounds.

[2] = In vivo PK, oral gavage, plasma; parameters: species or system Rat (SD); details: Rat, PO 5 mg/kg, 24.0 hr; BQL limit 1.00 ng/mL; listed as AUG I-207, 5 mg/kg
[3] = Microsomal stability assay (half-life), rat; assay type: in vitro ADME; details: Rat (SD) microsomes, read-out: Microsomal stability T1/2
Text: as §1

[4] = Turbidity-based aqueous solubility; assay type: physicochemical; details: aqueous solution (composition not given), kinetic from dmso stock, read-out: highest soluble concentration
Text: as §1

[5] = Microsomal stability assay (half-life), human; assay type: in vitro ADME; details: Human microsomes, read-out: Microsomal stability T1/2
Text: as §1

[6] = In vivo PK, oral gavage, plasma; parameters: species or system Rat (SD); details: for Plasma concentration, mean: Rat (SD), BQL = below quantitation limit (1.00 ng/mL); for Plasma concentration, mean / Plasma concentration, individual animal: PO 5 mg/kg
Text: as §1
(§2) Tables 4 and 5 depict the summary of rat plasma sample concentrations after administration of ADG I-204. FIG. 6 provides a summary of rat plasma and brain concentrations.

[7] = In vivo PK, IV dose, Terminal - brain (brain availability); parameters: species or system Rat (SD); details: for Brain concentration, mean / Brain concentration, individual animal: IV 1 mg/kg
Procedure: Table 3 and FIG. 5 depict the brain availability of ADG I-204, ADG I-205, ADG I-206, and ADG I-207 after IV administration of 1 mg/kg dose.

[8] = Microsomal stability assay (half-life), mouse; assay type: in vitro ADME; details: Mouse (CD1) microsomes, read-out: Microsomal stability T1/2
Text: as §1

[9] = tested on: H3K9ac; experiment: Western blot, differentiated CAD cell lysates, H3K9ac levels; assay type: cell-based; details: differentiated CAD cells, DMSO = 100.00%
Text: as §1

[10] = In vivo PK, IV dose, plasma; parameters: species or system Rat (SD); details: for Plasma concentration, mean / Plasma concentration, individual animal: IV 1 mg/kg
Text: as §1, §2

- Protein binding, plasma: % Protein free [1]: 0.9428 % Protein free
- Plasma concentration, individual animal [2]: BQL
- half-life at 2 μM [3]: 5.5 min
- solubility [4]: 5 µM (≈ 2.43 µg/mL)
- half-life at 2 μM [5]: 18.7 min
- Plasma concentration, mean ([6]; 0.25 hr): BQL
- Plasma concentration, mean ([6]; 0.5 hr): BQL
- Plasma concentration, mean ([6]; 1 hr): BQL
- Plasma concentration, mean ([6]; 4 hr): BQL
- Plasma concentration, mean ([6]; 8 hr): BQL
- Plasma concentration, mean ([6]; 24 hr): BQL
- Plasma concentration, individual animal ([6]; Rat, 0.250 hr, BQL limit 1.00 ng/mL): BQL
- Plasma concentration, individual animal ([6]; Rat, 0.500 hr, BQL limit 1.00 ng/mL): BQL
- Plasma concentration, individual animal ([6]; Rat, 1.00 hr, BQL limit 1.00 ng/mL): BQL
- Plasma concentration, individual animal ([6]; Rat, 4.00 hr, BQL limit 1.00 ng/mL): BQL
- Plasma concentration, individual animal ([6]; Rat, 8.00 hr, BQL limit 1.00 ng/mL): BQL
- concentration at 24 h ([6]; SD, rat, plasma, po, 5 mg/kg, Rat, 24.0 hr, BQL limit 1.00 ng/mL, read-out: Plasma concentration, individual animal): 1.18 ng/mL
- Brain concentration, mean ([7]; Rat (SD), 1 hr, listed as ADG I-207, 1 mg/kg): 51 ng/g
- Brain concentration, mean ([7]; Rat (SD), 4 hr, BQL limit 10.0 ng/g (204, 206), 20.0 ng/g (205, 207)): BQL
- Brain concentration, mean ([7]; Rat (SD), 8 hr, BQL limit 10.0 ng/g (204, 206), 20.0 ng/g (205, 207)): BQL
- Brain concentration, mean ([7]; Rat (SD), 24 hr, BQL limit 10.0 ng/g (204, 206), 20.0 ng/g (205, 207)): BQL
- Brain concentration, individual animal ([7]; Rat, 0.0830 hr, third animal received only 70% of the test article, listed as ADG I-207, 1 mg/kg): 204 ng/g and 253 ng/g and 119*** ng/g
- Brain concentration, individual animal ([7]; Rat, 1.00 hr, listed as ADG I-207, 1 mg/kg): 39.8 ng/g and 58.9 ng/g
- Brain concentration, individual animal ([7]; Rat, 4.00 hr, BQL limit 10.0 ng/g (204, 206), 20.0 ng/g (205, 207)): BQL
- Brain concentration, individual animal ([7]; Rat, 8.00 hr, BQL limit 10.0 ng/g (204, 206), 20.0 ng/g (205, 207)): BQL
- Brain concentration, individual animal ([7]; Rat, 24.0 hr, BQL limit 10.0 ng/g (204, 206), 20.0 ng/g (205, 207)): BQL
- concentration at 0.083 h ([7]; SD, rat, brain, iv, 1 mg/kg, Rat (SD), 0.083 hr): 192 ng/g
- concentration at 1 h ([7]; SD, rat, brain, iv, 1 mg/kg, Rat (SD), 1 hr, read-out: Brain concentration, mean): 50.8 ng/g
- concentration at 1 h ([7]; SD, rat, brain, iv, 1 mg/kg, Rat, 1.00 hr, read-out: Brain concentration, individual animal): 53.6 ng/g
- half-life at 2 μM [8]: 5.5 min
- Plasma concentration, mean ([10]; Rat (SD), 0.083 hr, terminal, listed as ADG I-207, 1 mg/kg): 1660*** ng/mL
- Plasma concentration, mean ([10]; Rat (SD), 1 hr, terminal, listed as ADG I-207, 1 mg/kg): 55 ng/mL
- Plasma concentration, mean ([10]; Rat (SD), 4 hr, terminal, listed as ADG I-207, 1 mg/kg): 1 ng/mL
- Plasma concentration, mean ([10]; Rat (SD), 8 hr, terminal, listed as ADG I-207, 1 mg/kg): 1 ng/mL
- Plasma concentration, mean ([10]; Rat (SD), 24 hr, terminal, BQL limit 1.00 ng/mL (ADG I-205: 2.00 ng/mL)): BQL
- Plasma concentration, individual animal ([10]; Rat, 0.0830 hr, terminal, third animal received only 70% of the test article, listed as ADG I-207, 1 mg/kg): 1640 ng/mL and 2230 ng/mL and 1110 ng/mL
- Plasma concentration, individual animal ([10]; Rat, 1.00 hr, terminal, listed as ADG I-207, 1 mg/kg): 70.3 ng/mL and 27.3 ng/mL and 65.8 ng/mL
- Plasma concentration, individual animal ([10]; Rat, 4.00 hr, terminal, BQL limit 1.00 ng/mL (ADG I-205: 2.00 ng/mL), listed as ADG I-207, 1 mg/kg): BQL
- Plasma concentration, individual animal ([10]; Rat, 8.00 hr, terminal, BQL limit 1.00 ng/mL (ADG I-205: 2.00 ng/mL), listed as ADG I-207, 1 mg/kg): BQL and 1.09 ng/mL
- Plasma concentration, individual animal ([10]; Rat, 24.0 hr, terminal, BQL limit 1.00 ng/mL (ADG I-205: 2.00 ng/mL)): BQL
- concentration at 0.083 h ([10]; SD, rat, plasma, iv, 1 mg/kg, Rat (SD), 0.083 hr, terminal, read-out: Plasma concentration, mean): 1660 ng/mL
- concentration at 0.5 h ([10]; SD, rat, plasma, iv, 1 mg/kg, Rat (SD), 0.500 hr, not a terminal time point (animals 4, 5 and 6)): 608 ng/mL
- concentration at 1 h ([10]; SD, rat, plasma, iv, 1 mg/kg, Rat (SD), 1 hr, terminal, read-out: Plasma concentration, mean): 54.5 ng/mL
- concentration at 4 h ([10]; SD, rat, plasma, iv, 1 mg/kg, Rat (SD), 4 hr, terminal, read-out: Plasma concentration, mean): 1.37 ng/mL
- concentration at 8 h ([10]; SD, rat, plasma, iv, 1 mg/kg, Rat (SD), 8 hr, terminal, read-out: Plasma concentration, mean): 1.05 ng/mL
- concentration at 4 h ([10]; SD, rat, plasma, iv, 1 mg/kg, Rat, 4.00 hr, terminal, BQL limit 1.00 ng/mL (ADG I-205: 2.00 ng/mL), read-out: Plasma concentration, individual animal): 1.37 ng/mL
- concentration at 8 h ([10]; SD, rat, plasma, iv, 1 mg/kg, Rat, 8.00 hr, terminal, BQL limit 1.00 ng/mL (ADG I-205: 2.00 ng/mL), read-out: Plasma concentration, individual animal): 1 ng/mL
Structure (SMILES): O=C(Nc1ccc2nc(-c3cccs3)c(-c3cccs3)nc2c1)NC12CC3CC(CC(C3)C1)C2 [ADG-207, 1-((1S,3s)-adamantan-1-yl)-3-(2,3-di(thiophen-2-yl)quinoxalin-6-yl)urea]
- H3K9ac levels normalized to H3 and DMSO control ([9]; 1 uM): 57.45%
- H3K9ac levels normalized to H3 and DMSO control ([9]; 5 uM): 63.69%
- H3K9ac levels normalized to H3 and DMSO control ([9]; 10 uM): 72.97%
- H3K9ac levels normalized to H3 and DMSO control ([9]; 20 uM): 70.92%
- H3K9ac levels normalized to H3 and DMSO control ([9]; 50 uM): 116.85%
- H3K9ac levels normalized to H3 and DMSO control ([9]; 100 uM): 107.80%
- Plasma concentration, individual animal ([10]; Rat, 0.500 hr, not terminal (animals 4, 5 and 6), listed as ADG I-207, 1 mg/kg): 1560** ng/mL and 93.3 ng/mL and 170 ng/mL
